“Also recorded” adds a separate entry of the source. Where two headings read alike, the source gives them in different places.

Data on two compounds can be found in patent US20220290105A1, “MESENCHYMAL STEM CELLS WITH ENHANCED THERAPEUTIC PROPERTIES” (CELLS FOR CELLS S.A., priority 2019, published 2022).

Test [1] has as its system human mononuclear cells (PBMC). In words: Immunosuppression at different oligomycin pretreatment concentrations, co-culture with human PBMC (FIG. 14). It counts as cell-based. The settings on record: pretreatment at 0.1 μg/ml, 1 μg/ml and 10 μg/ml; 4 days co-culture. As to the method:
FIG. 14. […] MSC were with different oligomycin concentration (0.1 μg/ml, 1 μg/ml and 10 μg/ml), the media was removed and the cells were washed and cultured with freshly isolated human mononuclear cells (PBMC) that were stained with cell trace violet. Proliferation of CD4+ and CD8+ was quantified after 4 days of co-culturing by flow cytometry and graphed. N=3 PBMC and * p<0.05.
The inventors developed and immunosuppression experiment where the MSCs were pretreated with different concentrations of ATP-Synthase inhibitor, such as Oligomycin, more specifically at 0.1 μg/ml, 1 μg/ml and 10 μg/ml. After the pretreatment, the media with ATP-synthase inhibitor was removed, the MSCs were washed, and the MSC were cultured with freshly isolated human mononuclear cells (PBMC) that were stained with cell trace violet.

In test [2] the test system is UC-MSCs. Put plainly: Transmigration of UC-MSCs through a semipermeable membrane with 8 μM pores (FIG. 11). It counts as cell-based. To be noted: quantified at 8 hours and 24 hours; 5% fetal bovine serum in lower chamber. The procedure: FIG. 11. UC-MSCs pretreated with oligomycin promote their transmigration potential. GlycoStem cells were cultured on a semipermeable membrane with […] diameter pores. Cells were seeded in serum-free medium in the upper chamber, while DMEM medium with 5% fetal bovine serum was added in the lower chamber to induce transmigration of the cells. Cell migration was quantified 8 hours (A and B) and 24 hours (C and D) later. […] N=3 different donors from 3 independent experiments * p<0.05.

The subject of test [3] is UC-MSCs. Put plainly: Metabolic status (OCR, ECAR, lactate efflux) and surface markers of treated MSCs (FIG. 4). It counts as cell-based. From the text:
FIG. 4. […] (A) MSCs treated with ATP-Synthase inhibitors show a diminished oxidative phosphorylation, quantified as oxygen consumption rate (OCR), (B) and an enhanced glycolysis, shown as extracellular acidification rate (ECAR).
In order to determine the efficiency of MSCs treated with ATP-synthase inhibitors, the inventors first evaluated the glycolytic status of UC-MSCs using biochemical parameters such as lactate production and glucose consumption and also if possible, the metabolic status of MSCs treated with ATP-synthase inhibitors was evaluated in real time by measuring the oxygen consumption rate (OCR) or the extra cellular acidification rate (ECAR) by the Seahorse™ technology. Moreover, different functional assays were carried out in order to compare the efficacy of MSCs treated with ATP-synthase inhibitors as compared to non-treated UC-MSCs including evaluation of the differentiation potential towards chondrocytes, viability assays of MSCs, chondroprotection assays, immunosuppression assays and in vivo evaluation using joint inflammation murine models.

A further test relates to PBMC. Put plainly: Coculture of human BM-MSCs, UC-MSCs or MenSC with phytohemaglutinine-activated PBMC, T-CD4 and T-CD8 proliferation by FACS (FIG. 12). It counts as cell-based. To be noted: BM-MSCs, 1 MSCs:20 PBMCs ratio, 4 days. As to the method: FIG. 12. […] Human BM-MSCs, UC-MSCs or MenSC were coculture with freshly isolated PBMC activated with phytohemaglutinine in a 1 MSCs:20 PBMCs ratio. After 4 days proliferation was measured by quantifying the decrease in cell fluorescence on either T-CD4 (A) or T-CD8 (B) cells in PBMCs by FACS. Results are represented as mean and SD of 3 independent experiments using at least 3 different PBMC donors and 2 different BM-MSCs, MenSC and UC-MSCs donors. Statistical analyses used the non-parametric Friedman test comparing more than two groups (*, p<0.05; **, p<0.01; ***, p<0.005).
For orientation: Flow cytometry measures light scatter and fluorescence of single cells or particles in a stream.

The subject of the next test is mice with DTH. Put plainly: In vivo model of delayed type hypersensitivity (DTH), paw swelling (FIG. 8). To be noted: mice treated with MSCs pre-incubated with or without oligomycin.
The subject of test [4] is UC-MSCs. In words: Chondrogenic differentiation of UC-MSCs: micromass, Aggrecan qPCR, Collagen II vs Collagen I ratio (FIG. 5). It counts as cell-based. To be noted: basal media; for ratio of Collagen II vs Collagen I production: compared to MSC in basal media (CTL). From the text:
FIG. 5. […] UC-MSCs were differentiated towards chondrogenic lineage. […] The relative expression of the proteoglycan Aggrecan, which is typically expressed in hyaline cartilage, was quantified by qPCR. […] When MSC on basal media (CTL) are compared to MSC treated with inhibitors of the ATP-synthase, these treated MSC present chondrogenic behaviour on the ratio of Collagen II vs Collagen I proportion. […] Also, some inhibitors present the same behaviour than MSC in differentiation media (differentiation) (D).
On the technique in general: In qPCR the cycle at which signal appears reflects the starting amount.

The test system of the next test is murine CD4. In words: Immunosuppression after 6 or 24 hours pretreatment, co-culture with murine CD4 (FIG. 15). To be noted: 3 days co-culture. It counts as cell-based. The procedure: FIG. 15. […] MSC were treated for 6 and 24 hours oligomycin. Then, the media was removed, the cells were washed and these pretreated MSCs were co-cultured during 3 days with freshly isolated murine CD4 that were stained with cell trace violet. Proliferation of CD4+ was quantified by flow cytometry and graphed. N=4 different mice and * p<0.05.
The inventor developed an incubation experiment were the MSC were treated for 6 and 24 hours with an ATP-Synthase inhibitor, such as Oligomycin. After this treatment, the media with ATP-synthase inhibitor was removed, the MSCs were washed, and the MSCs were co-cultured during 3 days with murine freshly isolated CD4 and their effects were compared.

In a further test the test system is GVHD mice. Put plainly: In vivo model of graft versus host disease (GVHD), Kaplan-Meier survival (FIG. 9). To be noted: UC-MSCs pre-treated or not with oligomycin. The text has this:
FIG. 9. […] A) Experimental design of the in vivo model of GVHD. B) Kaplan-Meier plot showing the survival rate of GVHD mice compared to UC-MSCs that were pre-treated or not with oligomycin. N=15 mice per experimental group performed at least 2 times independently—* p<0.05.

For `CC[C@H]1/C=C/C=C/C[C@@H](C)[C@H](O)[C@@](C)(O)C(=O)[C@@H](C)[C@H](O)[C@@H](C)C(=O)[C@@H](C)[C@H](O)[C@@H](C)/C=C/C(=O)O[C@@H]2[C@H](C)[C@H](CC1)O[C@]1(CC[C@H](C)[C@H](C[C@@H](C)O)O1)[C@H]2C` [oligomycin, Oligomycin], the “suppressive activity (proliferation of CD4+ and CD8+)” value in test [1] is listed as “enhanced suppressive activity that is dose dependent”. Moreover, the “transmigration / migratory capacity” value in the test with UC-MSCs [2] was “significantly increase their migratory capacity”. In addition, the entries for the “metabolic switch towards glycolytic dependent metabolism (ECAR/OCR ratio)” value with UC-MSCs [3] and in the test on UC-MSCs [3] (listed as Oligomycin) were “inducing a strongly glycolytic-dependent metabolism” and “induces a glycolytic dependent metabolism”, respectively. The “Surface markers of UC-MSC” value in the test with UC-MSCs [3] (after metabolic switch) was “not affected”. Also, the “immunosuppressive abilities of human MSCs (T-CD4 and T-CD8 proliferation)” value in the test on PBMC was “enhances the immunosuppressive abilities of human MSCs independent on the origin”. In addition, in the test with mice with DTH, the “limb swelling (Paw Swelling) / inflammation in DTH” value was “increases the therapeutic potential of MSCs”. The “ratio of Collagen II vs Collagen I production” value with UC-MSCs [4] was “fold change in the production of collagen type 2 versus collagen type 1”. In the test on UC-MSCs [4] (compared to untreated control), the “relative expression of the proteoglycan Aggrecan (qPCR)” value was “increased relative expression; also recorded: increase in the relative expression”. Moreover, in the test on UC-MSCs [4] (no differentiation media, 24Hrs pre-treatment), the “generation of three-dimensional tissue (micromass) / spontaneous differentiation into chondrocytes” value is listed as “even greater than the three-dimensional tissue obtained by using the differentiation media alone; also recorded: spontaneously differentiate into chondrocytes; also recorded: stimulates the spontaneous differentiation towards a functional three-dimensional cartilage”. The entries for the “suppressive activity (proliferation of CD4+)” value in the test on murine CD4 (6 hours pretreatment) and in the test on murine CD4 (24 hours pretreatment) were “enhanced the suppressive activity of MSCs” and “enhanced suppressive activity; also recorded: highest enhancement of the MSCs suppression activity”, respectively. Also, the “survival rate of GVHD mice” value in the test on GVHD mice is given as “increases the survival rate”.

In the case of `Oc1ccc(C=Cc2cc(O)cc(O)c2)cc1` [resveratrol, Resveratrol], the “ratio of Collagen II vs Collagen I production” value in the test with UC-MSCs [4] is recorded as “fold change in the production of collagen type 2 versus collagen type 1; also recorded: promote the MSC in basal media to behave as MSC that are in a differentiation media”.
